{"source": "paper PMC8480901", "about": "(PLoS ONE, 2021)", "system": "human PBMCs", "test": "LPS-induced cytokine and chemokine levels in human PBMC supernatant (Luminex, ELISA)", "type": "cell-based", "conditions": "for IL-1β % reduction / IL-1β [pg/mL], Mean / IL-1β [pg/mL], individual value / IL-6 % reduction / IL-6 [pg/mL], Mean / IL-6 [pg/mL], individual value / IL-8 % reduction / IL-8 [pg/mL], Mean / IL-8 [pg/mL], individual value / TNF-α % reduction / TNF-α [pg/mL], Mean / TNF-α [pg/mL], individual value: LPS-stimulated human PBMC supernatant", "note": "Where “and” joins values, the source holds several entries; their conditions need not be identical. Equal entries are not always repeated."}
{"compound": "C[C@@H]1C[C@H]2[C@@H]3CCC4=CC(=O)C=C[C@]4(C)[C@@]3(F)[C@@H](O)C[C@]2(C)[C@@]1(O)C(=O)CO", "note": "[Dexamethasone]", "values": [{"measurement": "IL-1β % reduction", "setting": "0.0003 µM", "value": -0.241, "unit": "%"}, {"measurement": "IL-1β [pg/mL], Mean", "setting": "0.0003 µM", "value": 12816, "unit": "pg/mL"}, {"measurement": "IL-1β [pg/mL], individual value", "setting": "0.0003 µM", "value": "13584 pg/mL and 12048 pg/mL"}, {"measurement": "IL-6 % reduction", "setting": "0.0003 µM", "value": 11, "unit": "%"}, {"measurement": "IL-6 [pg/mL], Mean", "setting": "0.0003 µM", "value": 31175, "unit": "pg/mL"}, {"measurement": "IL-6 [pg/mL], individual value", "setting": "0.0003 µM", "value": "28443 pg/mL and 33908 pg/mL"}, {"measurement": "IL-8 % reduction", "setting": "0.0003 µM", "value": 3.74, "unit": "%"}, {"measurement": "IL-8 [pg/mL], Mean", "setting": "0.0003 µM", "value": 2934, "unit": "pg/mL"}, {"measurement": "IL-8 [pg/mL], individual value", "setting": "0.0003 µM", "value": "2852 pg/mL and 3016 pg/mL"}, {"measurement": "TNF-α % reduction", "setting": "0.0003 µM", "value": -22, "unit": "%"}, {"measurement": "TNF-α [pg/mL], Mean", "setting": "0.0003 µM", "value": 10856, "unit": "pg/mL"}, {"measurement": "TNF-α [pg/mL], individual value", "setting": "0.0003 µM", "value": "11484 pg/mL and 10228 pg/mL"}, {"measurement": "IL-1β % reduction", "setting": "0.001 µM", "value": -2.29, "unit": "%"}, {"measurement": "IL-1β [pg/mL], Mean", "setting": "0.001 µM", "value": 13078, "unit": "pg/mL"}, {"measurement": "IL-1β [pg/mL], individual value", "setting": "0.001 µM", "value": "12492 pg/mL and 13663 pg/mL"}, {"measurement": "IL-6 % reduction", "setting": "0.001 µM", "value": 15, "unit": "%"}, {"measurement": "IL-6 [pg/mL], Mean", "setting": "0.001 µM", "value": 29537, "unit": "pg/mL"}, {"measurement": "IL-6 [pg/mL], individual value", "setting": "0.001 µM", "value": "27758 pg/mL and 31316 pg/mL"}, {"measurement": "IL-8 % reduction", "setting": "0.001 µM", "value": 7, "unit": "%"}, {"measurement": "IL-8 [pg/mL], Mean", "setting": "0.001 µM", "value": 2887, "unit": "pg/mL"}, {"measurement": "IL-8 [pg/mL], individual value", "setting": "0.001 µM", "value": "2894 pg/mL and 2879 pg/mL"}, {"measurement": "TNF-α % reduction", "setting": "0.001 µM", "value": 26, "unit": "%"}, {"measurement": "TNF-α [pg/mL], Mean", "setting": "0.001 µM", "value": 6648, "unit": "pg/mL"}, {"measurement": "TNF-α [pg/mL], individual value", "setting": "0.001 µM", "value": "6422 pg/mL and 6874 pg/mL"}, {"measurement": "IL-1β % reduction", "setting": "0.003 µM", "value": 3, "unit": "%"}, {"measurement": "IL-1β [pg/mL], Mean", "setting": "0.003 µM", "value": 12382, "unit": "pg/mL"}, {"measurement": "IL-1β [pg/mL], individual value", "setting": "0.003 µM", "value": "12441 pg/mL and 12322 pg/mL"}, {"measurement": "IL-6 % reduction", "setting": "0.003 µM", "value": 23, "unit": "%"}, {"measurement": "IL-6 [pg/mL], Mean", "setting": "0.003 µM", "value": 26733, "unit": "pg/mL"}, {"measurement": "IL-6 [pg/mL], individual value", "setting": "0.003 µM", "value": "25302 pg/mL and 28163 pg/mL"}, {"measurement": "IL-8 % reduction", "setting": "0.003 µM", "value": 16, "unit": "%"}, {"measurement": "IL-8 [pg/mL], Mean", "setting": "0.003 µM", "value": 2739, "unit": "pg/mL"}, {"measurement": "IL-8 [pg/mL], individual value", "setting": "0.003 µM", "value": "2727 pg/mL and 2751 pg/mL"}, {"measurement": "TNF-α % reduction", "setting": "0.003 µM", "value": 36, "unit": "%"}, {"measurement": "TNF-α [pg/mL], Mean", "setting": "0.003 µM", "value": 5707, "unit": "pg/mL"}, {"measurement": "TNF-α [pg/mL], individual value", "setting": "0.003 µM", "value": "6398 pg/mL and 5017 pg/mL"}, {"measurement": "IL-1β % reduction", "setting": "0.01 µM", "value": 12, "unit": "%"}, {"measurement": "IL-1β [pg/mL], Mean", "setting": "0.01 µM", "value": 11212, "unit": "pg/mL"}, {"measurement": "IL-1β [pg/mL], individual value", "setting": "0.01 µM", "value": "11146 pg/mL and 11278 pg/mL"}, {"measurement": "IL-6 % reduction", "setting": "0.01 µM", "value": 26, "unit": "%"}, {"measurement": "IL-6 [pg/mL], Mean", "setting": "0.01 µM", "value": 25776, "unit": "pg/mL"}, {"measurement": "IL-6 [pg/mL], individual value", "setting": "0.01 µM", "value": "24216 pg/mL and 27336 pg/mL"}, {"measurement": "IL-8 % reduction", "setting": "0.01 µM", "value": 23, "unit": "%"}, {"measurement": "IL-8 [pg/mL], Mean", "setting": "0.01 µM", "value": 2621, "unit": "pg/mL"}, {"measurement": "IL-8 [pg/mL], individual value", "setting": "0.01 µM", "value": "2587 pg/mL and 2655 pg/mL"}, {"measurement": "TNF-α % reduction", "setting": "0.01 µM", "value": 34, "unit": "%"}, {"measurement": "TNF-α [pg/mL], Mean", "setting": "0.01 µM", "value": 5893, "unit": "pg/mL"}, {"measurement": "TNF-α [pg/mL], individual value", "setting": "0.01 µM", "value": "5929 pg/mL and 5857 pg/mL"}, {"measurement": "IL-1β % reduction", "setting": "0.03 µM", "value": 36, "unit": "%"}, {"measurement": "IL-1β [pg/mL], Mean", "setting": "0.03 µM", "value": 8206, "unit": "pg/mL"}, {"measurement": "IL-1β [pg/mL], individual value", "setting": "0.03 µM", "value": "8428 pg/mL and 7983 pg/mL"}, {"measurement": "IL-6 % reduction", "setting": "0.03 µM", "value": 46, "unit": "%"}, {"measurement": "IL-6 [pg/mL], Mean", "setting": "0.03 µM", "value": 19008, "unit": "pg/mL"}, {"measurement": "IL-6 [pg/mL], individual value", "setting": "0.03 µM", "value": "18119 pg/mL and 19897 pg/mL"}, {"measurement": "IL-8 % reduction", "setting": "0.03 µM", "value": 24, "unit": "%"}, {"measurement": "IL-8 [pg/mL], Mean", "setting": "0.03 µM", "value": 2601, "unit": "pg/mL"}, {"measurement": "IL-8 [pg/mL], individual value", "setting": "0.03 µM", "value": "2572 pg/mL and 2630 pg/mL"}, {"measurement": "TNF-α % reduction", "setting": "0.03 µM", "value": 61, "unit": "%"}, {"measurement": "TNF-α [pg/mL], Mean", "setting": "0.03 µM", "value": 3547, "unit": "pg/mL"}, {"measurement": "TNF-α [pg/mL], individual value", "setting": "0.03 µM", "value": "4619 pg/mL and 2475 pg/mL"}, {"measurement": "IL-1β % reduction", "setting": "0.1 µM", "value": 49, "unit": "%"}, {"measurement": "IL-1β [pg/mL], Mean", "setting": "0.1 µM", "value": 6554, "unit": "pg/mL"}, {"measurement": "IL-1β [pg/mL], individual value", "setting": "0.1 µM", "value": "6360 pg/mL and 6748 pg/mL"}, {"measurement": "IL-6 % reduction", "setting": "0.1 µM", "value": 46, "unit": "%"}, {"measurement": "IL-6 [pg/mL], Mean", "setting": "0.1 µM", "value": 18754, "unit": "pg/mL"}, {"measurement": "IL-6 [pg/mL], individual value", "setting": "0.1 µM", "value": "18604 pg/mL and 18905 pg/mL"}, {"measurement": "IL-8 % reduction", "setting": "0.1 µM", "value": 39, "unit": "%"}, {"measurement": "IL-8 [pg/mL], Mean", "setting": "0.1 µM", "value": 2364, "unit": "pg/mL"}, {"measurement": "IL-8 [pg/mL], individual value", "setting": "0.1 µM", "value": "2111 pg/mL and 2616 pg/mL"}, {"measurement": "TNF-α % reduction", "setting": "0.1 µM", "value": 76, "unit": "%"}, {"measurement": "TNF-α [pg/mL], Mean", "setting": "0.1 µM", "value": 2172, "unit": "pg/mL"}, {"measurement": "TNF-α [pg/mL], individual value", "setting": "0.1 µM", "value": "1964 pg/mL and 2380 pg/mL"}, {"measurement": "IL-1β % reduction", "setting": "0.3 µM", "value": 47, "unit": "%"}, {"measurement": "IL-1β [pg/mL], Mean", "setting": "0.3 µM", "value": 6792, "unit": "pg/mL"}, {"measurement": "IL-1β [pg/mL], individual value", "setting": "0.3 µM", "value": "7094 pg/mL and 6491 pg/mL"}, {"measurement": "IL-6 % reduction", "setting": "0.3 µM", "value": 53, "unit": "%"}, {"measurement": "IL-6 [pg/mL], Mean", "setting": "0.3 µM", "value": 16544, "unit": "pg/mL"}, {"measurement": "IL-6 [pg/mL], individual value", "setting": "0.3 µM", "value": "15027 pg/mL and 18061 pg/mL"}, {"measurement": "IL-8 % reduction", "setting": "0.3 µM", "value": 26, "unit": "%"}, {"measurement": "IL-8 [pg/mL], Mean", "setting": "0.3 µM", "value": 2569, "unit": "pg/mL"}, {"measurement": "IL-8 [pg/mL], individual value", "setting": "0.3 µM", "value": "2679 pg/mL and 2458 pg/mL"}, {"measurement": "TNF-α % reduction", "setting": "0.3 µM", "value": 67, "unit": "%"}, {"measurement": "TNF-α [pg/mL], Mean", "setting": "0.3 µM", "value": 2969, "unit": "pg/mL"}, {"measurement": "TNF-α [pg/mL], individual value", "setting": "0.3 µM", "value": "3059 pg/mL and 2880 pg/mL"}, {"measurement": "IL-1β % reduction", "setting": "1 µM", "value": 47, "unit": "%"}, {"measurement": "IL-1β [pg/mL], Mean", "setting": "1 µM", "value": 6720, "unit": "pg/mL"}, {"measurement": "IL-1β [pg/mL], individual value", "setting": "1 µM", "value": "7115 pg/mL and 6325 pg/mL"}, {"measurement": "IL-6 % reduction", "setting": "1 µM", "value": 53, "unit": "%"}, {"measurement": "IL-6 [pg/mL], Mean", "setting": "1 µM", "value": 16339, "unit": "pg/mL"}, {"measurement": "IL-6 [pg/mL], individual value", "setting": "1 µM", "value": "14576 pg/mL and 18103 pg/mL"}, {"measurement": "IL-8 % reduction", "setting": "1 µM", "value": 46, "unit": "%"}, {"measurement": "IL-8 [pg/mL], Mean", "setting": "1 µM", "value": 2244, "unit": "pg/mL"}, {"measurement": "IL-8 [pg/mL], individual value", "setting": "1 µM", "value": "2290 pg/mL and 2198 pg/mL"}, {"measurement": "TNF-α % reduction", "setting": "1 µM", "value": 74, "unit": "%"}, {"measurement": "TNF-α [pg/mL], Mean", "setting": "1 µM", "value": 2402, "unit": "pg/mL"}, {"measurement": "TNF-α [pg/mL], individual value", "setting": "1 µM", "value": "1732 pg/mL and 3073 pg/mL"}, {"measurement": "all measured LPS-induced cytokines and chemokines in supernatant", "setting": "human PBMCs, 0.0003-1 µM", "value": "dose-dependent reductions"}]}
